Data: article PMC5750218, “Protein-inspired antibiotics active against vancomycin- and daptomycin-resistant bacteria” (Nature Communications, 2018)

System: S. aureus ATCC 43300 (MRSA)
Test: Time kill assay
Type: cell-based, Staphylococcus aureus
Description: S. aureus ATCC® 43300™ (MRSA) was cultured in MHB (BactoLaboratories, Cat. No 211443) at 37 °C overnight. A sample was then diluted 40-fold in fresh MHB and incubated at 37 °C for 2–3 h until the culture reached early exponential phase (OD600 of 0.2–0.4). Vancapticin 24 ([…] and 0.003 µg mL^−1) and vancomycin (4, 2, 1 and 0.5 µg mL^−1) were serially diluted twofold across the wells of 96-well microtitre plates (NBS, Corning 3641) with a final volume of 50 µL, then combined with 50 µL of bacterial inoculum (giving a final cell density of 5 × 10^5 CFU mL^−1) and incubated at 37 °C. Serial dilutions of the cultures were plated at each desired time point, using a multichannel pipette as follows: in row A of a 96-well plate, 50 µL of sterile activated charcoal suspension (25 mg mL^−1) was added, while 90 µL of 0.9% sterile saline per well was added to the other rows. At selected time-points, 50 µL aliquots were transferred from the time-kill assay plate to the first row containing the charcoal suspension and mixed well. […] The colonies in each spot were counted and used to calculate the number of viable CFU mL^−1 remaining in the original culture by considering the dilution factors (1:2 in charcoal, the serial dilution factor and the volume of the aliquot spotted).

Structure (SMILES): CN[C@H](CC(C)C)C(=O)N[C@H]1C(=O)N[C@@H](CC(N)=O)C(=O)N[C@H]2C(=O)N[C@H]3C(=O)N[C@H](C(=O)N[C@H](C(=O)O)c4cc(O)cc(O)c4-c4cc3ccc4O)[C@H](O)c3ccc(c(Cl)c3)Oc3cc2cc(c3O[C@@H]2O[C@H](CO)[C@@H](O)[C@H](O)[C@H]2O[C@H]2C[C@](C)(N)[C@H](O)[C@H](C)O2)Oc2ccc(cc2Cl)[C@H]1O [Compound 1, Vancomycin]
- Bactericidal profile in time kill assay: slowly bactericidal
